The test system of one data set is MRSA. The experiment in a line: MIC, 96-well CAMHB, 10^5 to 10^2 CFU/mL in 24 hours. The following applies: for MIC: Staphylococcus aureus, MRSA, read-out: MIC (MRSA). The class given is cell-based, Staphylococcus aureus. Here is the method:
(§1) To determine the MIC of polyamine compounds, the protocol described herein was used.
In brief, a 0.5 McFarland of each bacterial isolate was made. A 0.5 McFarland is a measure of turbidity in a liquid sample that contains approximately 1×10^∧8 CFU/mL. The 0.5 McFarland standard was diluted in cation adjusted Mueller Hinton Broth (CAMHB), and 50 μL of broth were added to a well of a 96-well plate. In addition, 50 μL of CAMHB that contained a desired concentration of antimicrobial were also added to the well for a final volume of 100 μL and a final concentration of approximately 5×10^4 CFU/well (which equated to approximately 5×10^5 CFU/mL). Each well contained a desired amount of polyamine compound in order to experimentally determine the MIC. Each 96-well plate was incubated at 37° C. for 24 hours. The contents of each well were plated on tryptic soy agar (TSA). TSA plates were incubated for 37° C. for 24 hours after which the number of CFU were counted and used to calculate the CFU/mL that remained after exposure to varying concentrations of compound. This procedure was repeated n=8 times for each concentration of antimicrobial. […]

For a further data set, the system named is P. aeruginosa. The description is as above. The format is cell-based, Pseudomonas aeruginosa. The following applies: for MIC: Pseudomonas aeruginosa. The procedure:
as §1
In brief, a 0.5 McFarland of each bacterial isolate was made. A 0.5 McFarland is a measure of turbidity in a liquid sample that contains approximately 1×10^∧8 CFU/mL. The 0.5 McFarland standard was diluted in cation adjusted Mueller Hinton Broth (CAMHB), and 50 μL of broth were added to a well of a 96-well plate. In addition, 50 μL of CAMHB that contained a desired concentration of antimicrobial were also added to the well for a final volume of 100 μL and a final concentration of approximately 5×10^4 CFU/well (which equated to approximately 5×10^5 CFU/mL). Each well contained a desired amount of polyamine compound in order to experimentally determine the MIC. Each 96-well plate was incubated at 37° C. for 24 hours. The contents of each well were plated on tryptic soy agar (TSA). TSA plates were incubated for 37° C. for 24 hours after which the number of CFU were counted and used to calculate the CFU/mL that remained after exposure to varying concentrations of compound. This procedure was repeated n=8 times for each concentration of antimicrobial.

In a further data set the test system is L-929 cells (ATCC CCL-1). The data set can be described thus: Minimal Essential Media (MEM) Elution cytotoxicity test. The class given is cell-based. Particulars: Table 11A. Here is the method: Summary: The Minimal Essential Media (MEM) Elution test was designed to determine the cytotoxicity of extractable substances. The test article was added to cell monolayers and incubated. The cell monolayers were examined and scored based on the degree of cellular destruction.
Acceptance Criteria: The United States Pharmacopeia & National Formulary (USP <87>) states that the test article meets the requirements, or receives a passing score (Pass) if the reactivity grade is not greater than grade 2 or a mild reactivity.
Acceptance criteria were based upon the negative and media controls receiving “0” reactivity grades and positive controls receiving a 3-4 reactivity grades (moderate to severe).
The cell monolayers were examined microscopically. The wells were scored as to the degree of discernable morphological cytotoxicity on a relative scale of 0 to 4:
The results from the three wells were averaged to give a final cytotoxicity score.
[…] This initial concentration was then diluted 1: 2, 1:4, 1:8, and 1:16. Multiple well cell culture plates were seeded with a verified quantity of industry standard L-929 cells (ATCC CCL-1) and incubated until approximately 80% confluent. The test articles and control extracts were added to the cell monolayers in triplicate. The cells were incubated at 37±1° C. with 5±1% CO2 for 48±3 hours.

The mark [1] stands for this setting: Table 5, read-out: MIC (P. aeruginosa).
Setting [2] is: read-out: MIC (P. aeruginosa), Table 5.

Usually MIC stands for the lowest concentration that inhibits growth of the organism.

Converted amounts (≈) assume the structure as drawn. Counter-ions that a name gives are not always drawn. Like-named read-outs stand apart in the source and are kept apart here.

`CCCCCCCCNCCCNCCCNCc1cc(CNCCCNCCCNCCCCCCCC)cc(-c2ccccc2)c1` [CZ-92, N^1,N^1′-([1,1′-biphenyl]-3,5-diylbis(methylene))bis(N^3-(3-(octylamino)propyl)-propane-1,3-diamine)]: the MIC with MRSA (Table 5) and with P. aeruginosa (setting [1]) was under 50 µM throughout. In addition, the “Results Pass/Fail” value is reported as “Fail (a numerical grade greater than 2 is considered a cytotoxic effect, or a failing score (Fail))” with L-929 cells (ATCC CCL-1) (25 μg/mL); “Fail (a numerical grade greater than 2 is considered a cytotoxic effect, or a failing score (Fail))” with L-929 cells (ATCC CCL-1) (dilution 1:2 of 25 μg/mL); “Fail (a numerical grade greater than 2 is considered a cytotoxic effect, or a failing score (Fail))” in the data set on L-929 cells (ATCC CCL-1) (dilution 1:4 of 25 μg/mL); “Fail (a numerical grade greater than 2 is considered a cytotoxic effect, or a failing score (Fail))” with L-929 cells (ATCC CCL-1) (dilution 1:8 of 25 μg/mL); “Pass (receives a passing score (Pass) if the reactivity grade is not greater than grade 2 or a mild reactivity)” in the data set with L-929 cells (ATCC CCL-1) (dilution 1:16 of 25 μg/mL).
Take `NCCCNCCCNCc1cc(CNCCCNCCCN)cc(OCC2CCCCC2)c1` [CZ-101, N^1,N^1′-((5-(cyclohexylmethoxy)-1,3-phenylene)bis(methylene))bis(N^3-(3-aminopropyl)propane-1,3-diamine), hydrochloride salt]: the MIC with MRSA and with P. aeruginosa (setting [2]) was under 50 µM in each case.
For `CC(C)CNCCCNCCCNCc1cc(CNCCCNCCCNCC(C)C)cc(-c2cnn(C)c2)c1` [CZ-102, N^1,N^1′-((5-(1-methyl-1H-pyrazol-4-yl)-1,3-phenylene)bis(methylene))bis(N3-(3-(isobutylamino)propyl)propane-1,3-diamine)], the MIC was under 50 µM with MRSA (Table 5) and 50 to 100 µM (≈ 27.8 to 55.7 µg/mL) with P. aeruginosa (setting [1]).
For `CC(C)CNCCCNCCCNCc1cc(CNCCCNCCCNCC(C)C)cc(OC2CCCCC2)c1` [CZ-104, N^1,N^1′-((5-(cyclohexyloxy)-1,3-phenylene)bis(methylene))bis(N^3-(3-(isobutylamino)propyl)propane-1,3-diamine)], in the data set with MRSA (Table 5), the MIC is under 50 µM. Besides, in the data set with P. aeruginosa (Table 5), the “MIC (P. aeruginosa)” value is “++ to +++”.
In the case of `NCCCNCCCNCc1cc(CNCCCNCCCN)cc(OC2CCCCC2)c1` [CZ-105], the minimal inhibitory concentration (MIC) is under 50 µM in the data set on MRSA (Table 5) and 50 to 100 µM (≈ 23.1 to 46.3 µg/mL) in the data set on P. aeruginosa (setting [1]).
On the same counts, the results for `CC(C)CNCCCNCCCNCc1cc(CNCCCNCCCNCC(C)C)cc(OCc2ccccc2)c1` [CZ-106, N^1,N^1′-((5-(benzyloxy)-1,3-phenylene)bis(methylene))bis(N^3-(3-(isobutylamino)propyl)propane-1,3-diamine)] are under 50 µM and 50 to 100 µM (≈ 29.1 to 58.3 µg/mL).
In the case of `CC(C)CNCCCOc1cc(CNCCCNCCCN)cc(CNCCCNCCCN)c1` [CZ-107, N^1,N^1′-((5-(3-(isoButylammonio)propoxy)-1,3-phenylene)bis(methylene))-bis(N^3-(3-ammoniopropyl)propane-1,3-diaminium) chloride], the minimal inhibitory concentration (MIC) in the data set on MRSA was under 50 µM; with P. aeruginosa (setting [2]) it was 50 to 100 µM.
Consider `CC(C)CNCCCNCCCNCc1cccc(CNCCCNCCCNCC(C)C)c1` [CZ-108, N^1,N^1′-(1,3-phenylenebis(methylene))bis(N^3-(3-(isobutylamino)propyl)propane-1,3-diamine)], for which the MIC with MRSA (Table 5) and with P. aeruginosa (setting [1]) was under 50 µM throughout.
Turning to `CC(C)CNCCCNCCCNCc1cc(Br)cc(CNCCCNCCCNCC(C)C)c1` [CZ-109, N^1,N^1′-((5-bromo-1,3-phenylene)bis(methylene))bis(N^3-(3-(isobutylamino)propyl)propane-1,3-diamine)], the MIC in the data set with MRSA (Table 5) and with P. aeruginosa (setting [1]) was under 50 µM each time.
`CC(C)CNCCCNCCCCNCc1cc(CNCCCCNCCCNCC(C)C)cc(-c2ccccc2)c1` [CZ-111, N^1,N^1′-([1,1′-biphenyl]-3,5-diylbis(methylene))bis(N^4-(3-(isobutylamino)propyl)butane-1,4-diamine)]: the minimum inhibitory concentration (MIC) with MRSA (Table 5) and in the data set on P. aeruginosa (setting [1]) was under 50 µM in each case.
Turning to `CC(C)CNCCCNCC(C)(C)CNCc1cc(CNCC(C)(C)CNCCCNCC(C)C)cc(-c2ccccc2)c1` [CZ-112, N^1,N^1′-([1,1′-biphenyl]-3,5-diylbis(methylene))bis(N^3-(3-(isobutylamino)propyl)-2,2-dimethylpropane-1,3-diamine)], the minimal inhibitory concentration (MIC) in the data set on MRSA (Table 5) and in the data set with P. aeruginosa (setting [1]) was under 50 µM in each case.
In the case of `CCCCCCNCCCNCCCNCc1cccc(CNCCCNCCCNCCCCCC)c1` [CZ-113, N^1,N^1′-(1,3-phenylenebis(methylene))bis(N^3-(3-(hexylamino)propyl)propane-1,3-diamine)], the minimal inhibitory concentration (MIC) in the data set on MRSA (Table 5) and with P. aeruginosa (setting [1]) was under 50 µM each time.
With `CCCCCCNCCCNCCCNCc1cc(CNCCCNCCCNCCCCCC)cc(-c2ccccc2)c1` [CZ-114, N^1,N^1′-([1,1′-biphenyl]-3,5-diylbis(methylene))bis(N^3-(3-(hexylamino)propyl)propane-1,3-diamine)], the MIC with MRSA (Table 5) and with P. aeruginosa (setting [1]) was under 50 µM throughout.
Consider `NCCCCCCCCCCCCNCc1cc(CNCCCCCCCCCCCCN)cc(-c2ccccc2)c1` [CZ-115, N^1,N^1′-([1,1′-biphenyl]-3,5-diylbis(methylene))bis(dodecane-1,12-diamine)], for which the MIC with MRSA (Table 5) and in the data set on P. aeruginosa (setting [1]) was under 50 µM in each case.
As for `CC(C)CNCCCCCCCCCCCCNCc1cc(CNCCCCCCCCCCCCNCC(C)C)cc(-c2ccccc2)c1` [CZ-116, N^1,N^1′-([1,1′-biphenyl]-3,5-diylbis(methylene))bis(N^12-isobutyldodecane-1,12-diamine)], the MIC in the data set on MRSA (Table 5) and in the data set with P. aeruginosa (setting [1]) was under 50 µM throughout.
Regarding `CC(C)CNCCCCCCCCCCCCNCc1cccc(-c2cc(CNCCCCCCCCCCCCNCC(C)C)cc(CNCCCCCCCCCCCCNCC(C)C)c2)c1` [CZ-117, N^1,N^1′,N^1″-([1,1′-biphenyl]-3,3′,5-triyltris(methylene))tris(N^12-isobutyldodecane-1,12-diamine)], the MIC in the data set on MRSA (Table 5) and with P. aeruginosa (setting [1]) was under 50 µM throughout.
As for `CCCCCCNCCCNCCCCNCc1cc(CNCCCCNCCCNCCCCCC)cc(-c2ccccc2)c1` [CZ-118, N^1,N^1′-([1,1′-biphenyl]-3,5-diylbis(methylene))bis(N^4-(3-(hexylamino)propyl)butane-1,4-diamine)], the MIC in the data set on MRSA (Table 5) and in the data set on P. aeruginosa (setting [1]) was under 50 µM each time.
`CCCCCCNCCCNCCCCNCc1cccc(CNCCCCNCCCNCCCCCC)c1` [CZ-119, N^1,N^1′-(1,3-phenylenebis(methylene))bis(N^4-(3-(hexylamino)propyl)butane-1,4-diamine)]: the MIC in the data set on MRSA (Table 5) and in the data set on P. aeruginosa (setting [1]) was under 50 µM in each case.
For the compound “N^1,N^1′,N^1″-((4′-(trifluoromethyl)-[1,1′-biphenyl]-3,3′,5-triyl)tris(methylene))tris(N3-(3-aminopropyl)propane-1,3-diamine), hydrochloride salt [CZ-69]”, in the data set with MRSA (Table 5), the “MIC (MRSA)” value was “+++ (+++ = 50 μM > MIC. MIC results of “>n μM” or “<n μM” will also be designated as +++ if n <50.)”. Also, the “MIC (P. aeruginosa)” value in the data set on P. aeruginosa (Table 5) was “+++ (+++ = 50 μM > MIC. MIC results of “>n μM” or “<n μM” will also be designated as +++ if n <50.)”.
Turning to “tri-tert-butyl-(((((benzene-1,3,5-triyltris(methylene))tris(azanediyl))tris-(propane-3,1-diyl))tris(azanediyl))tris(propane-3,1-diyl))tricarbamate, hydrochloride salt [CZ-54]”, the “MIC (MRSA)” value with MRSA (Table 5) is given as “+++ (+++ = 50 μM > MIC. MIC results of “>n μM” or “<n μM” will also be designated as +++ if n <50.)”. In addition, the “MIC (P. aeruginosa)” value in the data set on P. aeruginosa (Table 5) was “+++ (+++ = 50 μM > MIC. MIC results of “>n μM” or “<n μM” will also be designated as +++ if n <50.)”.

These data come from US10440955B2, “Methods comprising a biocidal polyamine” (Curza Global, LLC, priority 2013, dated 2019).
